The values below come from PubChem BioAssay (NCI).

Holding throughout (test): growth of human tumour cells (NCI), 48 h
The subject of assay [1] is A498 renal.
Assay [2] deals with A549 NSCLC.
The subject of assay [3] is K-562 leukemia.
Assay [4] concerns M14 melanoma.
In assay [5] the test system is NCI-H226 lung.
Assay [6] has as its system NCI-H460 lung.
For assay [7], the system named is RXF 393 renal.
For assay [8], the system named is SF-295 CNS.
The subject of assay [9] is TK-10 renal.
Assay [10] deals with UACC-62 melanoma.

“And” between values parts separate entries of the source, which are not always exact repeats. Identical values can stand only once.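 Each compound was tested at five concentrations against cells in 96-well plates for 48 hours. The concentration for 50% growth inhibition is given as GI50. TGI: concentration producing complete growth inhibition.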 A value given as a limit tells only on which side of the number the result lay.

Regarding `Cn1c(I)c(C#CCO[Si](C)(C)C(C)(C)C)c(=O)[nH]c1=O`, the GI50 in assay [1] was 19.9 µM; in assay [2] it was greater than 100 µM; in assay [3], 2.06 µM; in assay [4], 14 µM; in assay [5], 17.1 µM; in assay [6] it was 53.8 µM. Besides, the GI50 was 18.8 µM in [7], greater than 100 µM in [8], 16.3 µM in [9] and 17.2 µM in [10]. Also, the TGI in [1] is 38 µM; in assay [2], greater than 100 µM; in assay [3] it was 4.36 µM; in assay [4], 28.7 µM; in assay [5] it was 32.7 µM; in assay [6] it was greater than 100 µM. In addition, the TGI in assay [7] was 34.3 µM; in assay [8], greater than 100 µM; in assay [9], 30.2 µM; in [10], 32.2 µM.

In the case of `COC(=O)c1ccc2c(c1)nc(NC(=O)c1ccccc1)n2CCCc1ccccc1`, the GI50 in [1] is 16 µM; in assay [2], 3.6 µM; in [3] it was 3.26 µM; in [4], 2.28 µM; in assay [5] it was 11.2 µM; in [6], 1.22 µM. In addition, the GI50 in assay [7] was 16.3 µM; in assay [8], 3.62 µM; in [9], 8.86 µM; in assay [10] it was 2.49 µM. Besides, the TGI in assay [1], in [2], in assay [3], in assay [4], in [5] and in [6] was greater than 100 µM throughout. Moreover, the TGI was greater than 100 µM in assay [7], greater than 100 µM in assay [8], greater than 100 µM in assay [9] and greater than 27 µM in [10].

Consider `C[N+](C)(C)CC1CCCc2ccccc2C1=O` (stereo unspecified), for which the TGI is 27.6 µM in assay [1]; 5.72 µM and 36.6 µM in [2]; 6.72 µM and 1.02 µM in assay [3]; 9.49 µM and 19.7 µM in assay [4]; 42.2 µM in assay [5]; 49.4 µM in assay [6]. Besides, the TGI is 30.1 µM in assay [7], greater than 55 µM in assay [8], 36.8 µM in [9] and 26.5 µM in assay [10]. For the same molecule, the GI50 was 18.6 µM in assay [2], 0.303 µM in [3], 7.85 µM in assay [4] and 15.8 µM in assay [7].

Take `CCN(CC)CCCN1CCc2c([nH]c3ccccc23)C1c1cccnc1` (stereo unspecified): the TGI in assay [1], in assay [2], in assay [3], in assay [4], in [5] and in assay [6] was greater than 100 µM each time. For the same molecule, the TGI in [7], in [8], in assay [9] and in [10] was greater than 100 µM throughout.

For the molecule `O=C(Nc1ccn(CCO)c(=O)n1)c1ccccc1`, the TGI in assay [1], in assay [2], in assay [3], in assay [4], in assay [5] and in assay [6] was greater than 100 µM throughout. For the same molecule, the TGI in [7], in [8], in assay [9] and in assay [10] was greater than 100 µM throughout.

For the molecule `O=C(CCN(C(=O)O)S(=O)(=O)c1ccc(NC(=O)c2ccccc2)cc1)Nc1ccccc1`, the TGI in [1] was greater than 100 µM; in assay [2] it was greater than 46.4 µM; in assay [3] it was greater than 83.2 µM; in assay [4] it was greater than 100 µM; in assay [5] it was greater than 100 µM; in [6] it was greater than 83.6 µM. For the same molecule, the TGI in assay [7] is greater than 100 µM; in assay [8], greater than 100 µM; in assay [9], greater than 100 µM; in assay [10] it was 97.5 µM.

In the case of `O=C1CCC2(c3ccc(Cl)cc3)Nc3ncccc3N12` (stereo unspecified), the TGI in assay [1], in [2], in assay [3], in assay [4], in assay [5] and in [6] was greater than 100 µM in each case. The TGI in assay [7], in assay [8], in assay [9] and in [10] was greater than 100 µM throughout.

In the case of `CCOC(=O)C(C#N)C1=CC(=O)C(=O)c2ccc(OC)cc21` (stereo unspecified), the TGI is 58.9 µM in [1]; 41 µM in assay [2]; greater than 100 µM in [3]; 29.8 µM in assay [4]; 49.7 µM in [5]; 58.6 µM in [6]. Moreover, the TGI in [7] was 47.5 µM; in [8] it was 58.3 µM; in [9], greater than 100 µM; in assay [10] it was 28.5 µM.

`Cn1cc(C2=C(c3ccc(N)cc3)C(=O)NC2=O)c2ccccc21`: the GI50 in assay [1] was 3.63 µM; in assay [2], 18.4 µM; in assay [3], 9.71 µM; in assay [4], greater than 20.4 µM; in assay [5] it was 16.1 µM; in assay [6], 23.3 µM. Also, the GI50 is 4.85 µM in assay [7], 15.7 µM in assay [8], greater than 25 µM in assay [9] and 11.8 µM in assay [10]. Moreover, the TGI in assay [1] is 12 µM; in assay [2], greater than 25 µM; in [3], greater than 25 µM; in assay [4], greater than 25 µM; in [5], greater than 25 µM; in [6], greater than 25 µM. Besides, the TGI in assay [7] was greater than 22.9 µM; in assay [8] it was greater than 25 µM; in [9], greater than 25 µM; in [10], greater than 25 µM.

In the case of `CCOC(=O)c1ccc(NC(=O)Oc2ccc3c(C)cc(=O)oc3c2)cc1`, the TGI in assay [1] was greater than 100 µM; in [2], greater than 100 µM; in assay [3] it was 66.7 µM; in [4] it was greater than 100 µM; in assay [5], 81.3 µM; in assay [6], greater than 100 µM. The TGI in [7], in assay [8], in assay [9] and in assay [10] was greater than 100 µM each time.

Turning to `Cc1cc(C)c2c(n1)sc1c(Nc3ccc(Cl)cc3)ncnc12`, the GI50 in assay [1] was less than 0.0133 µM; in assay [2], less than 0.01 µM; in [3] it was 0.0154 µM; in assay [4], less than 0.01 µM; in assay [5], 0.0333 µM; in [6] it was less than 0.01 µM. Further, the GI50 in assay [7] was 0.0195 µM; in [8] it was 0.0209 µM; in assay [9], greater than 100 µM; in assay [10], less than 0.01 µM. The TGI in assay [1] is 0.491 µM; in [2] it was greater than 100 µM; in [3], greater than 100 µM; in assay [5], 5.67 µM; in assay [6] it was greater than 100 µM; in assay [7] it was 0.0898 µM. For the same molecule, the TGI in assay [8] and in assay [9] was greater than 100 µM each time.

`COC(=O)C(C(=O)c1ccccc1)C(C(=O)C(=O)Nc1ccc(OC)cc1OC)C(=O)C(=O)c1ccc(C)cc1` (stereo unspecified): the TGI in assay [1], in [2], in assay [3], in [4], in assay [5] and in assay [6] was greater than 100 µM throughout. For the same molecule, the TGI in [7], in assay [8], in [9] and in [10] was greater than 100 µM each time.

`OC(CC1SCCCS1)c1ccccc1` (stereo unspecified): the TGI in assay [1], in assay [2], in [3], in assay [4], in assay [5] and in assay [6] was greater than 100 µM in each case. The TGI in assay [7], in assay [8], in assay [9] and in assay [10] was greater than 100 µM in each case.

`O=C(Nc1ccc2ncccc2c1)Nc1ccc2ncccc2c1`: the TGI in assay [1], in [2], in assay [3], in assay [4], in assay [5] and in [6] was greater than 100 µM throughout. Moreover, the TGI in assay [7], in [8], in assay [9] and in assay [10] was greater than 100 µM in each case.

Regarding `CCOC(=O)c1cnc2c(ccc3[nH]n(C)nc32)c1=O`, the TGI in assay [1], in [2], in [3], in [4], in assay [5] and in [6] was greater than 100 µM throughout. The TGI in assay [7] was 95.5 µM; in assay [8] it was greater than 100 µM; in assay [9] it was greater than 100 µM; in assay [10] it was greater than 100 µM.

Take `CCCCOC(=O)CNC(=O)OC/C=C/C#CC#C/C=C/COC(=O)NCC(=O)OCCCC`: the GI50 in assay [1], in [2], in assay [3], in assay [4], in assay [6] and in assay [7] was greater than 100 µM each time. Moreover, the GI50 in assay [8], in assay [9] and in assay [10] was greater than 100 µM in each case. The TGI in assay [1] is greater than 100 µM; in assay [2], greater than 100 µM; in assay [3], greater than 100 µM; in [4] it was greater than 100 µM; in assay [5], greater than 10 µM; in [6], greater than 100 µM. Further, the TGI in assay [7], in assay [8], in [9] and in [10] was greater than 100 µM each time.

For the molecule `Cc1ccc(S(=O)(=O)N(C=O)N=C2CCN(Cc3ccccc3)CC2)cc1`, the TGI in assay [1], in assay [2], in [3], in assay [4], in assay [5] and in assay [6] was greater than 100 µM each time. The TGI in assay [7], in assay [8], in [9] and in assay [10] was greater than 100 µM throughout.

For `CC(C)CCC1CC2C(=O)N(c3ccccc3)C(=O)C2c2[nH]c3ccccc3c21` (stereo unspecified), the TGI turned out to be 16 µM in assay [1]; 17.7 µM in assay [2]; 10.7 µM in [3]; 4.04 µM in [4]; 12.4 µM in assay [5]; 12.2 µM in assay [6]. The TGI in assay [7] was determined as 8.01 µM; in [8], 2.86 µM; in [9], 16.1 µM; in assay [10] it was 20.9 µM.

On to `CC(C)N(C(=O)C12C3C4C1C1C4(C#N)C3C12C#N)C(C)C` (stereo unspecified), for which the TGI in assay [1], in [2], in assay [3], in assay [4], in assay [5] and in assay [6] was greater than 100 µM each time. Besides, the TGI in assay [7], in [8], in [9] and in assay [10] was greater than 100 µM in each case.

Take `CN(C)CCNC(=O)c1cccc2ccc(-c3ccc(O)cc3)nc12`: the TGI in [1] was 12.1 µM; in assay [2], 7.17 µM; in [3], 3.96 µM; in assay [4] it was 2.75 µM; in [5], 6.33 µM and 3.6 µM; in assay [6] it was 2.85 µM and 2.99 µM. In addition, the TGI is 17.4 µM and 19.8 µM in assay [7]; 10.8 µM in assay [8]; 9.57 µM in assay [9]; 3.16 µM and 3.83 µM in [10]. Moreover, the GI50 was 0.94 µM in assay [5]; 0.637 µM in assay [6]; 5.65 µM in [7]; 2.82 µM in [8]; 1.6 µM in [10].

As to `COc1cccc(C2CC(C)(O)Oc3cc4c(cc32)OCO4)c1O` (stereo unspecified), the TGI was greater than 100 µM in [1]; greater than 100 µM in [2]; greater than 53.6 µM in [3]; greater than 65.8 µM in [4]; 57.9 µM in [5]; greater than 92.7 µM in assay [6]. Moreover, the TGI in [7] is greater than 79.8 µM; in [8], 64.9 µM; in [9] it was greater than 100 µM; in assay [10], greater than 75.9 µM.
